Results on 4 molecules are retold here after US11613522B2, “Herbicidally active 3-phenylisoxazoline-5-carboxamides of tetrahydro- and dihydrofurancarboxamides” (BAYER AKTIENGESELLSCHAFT, priority 2017, dated 2023).

Common to all, as to format: in vivo
The test system of assay [1] is Abutilon theophrasti. Briefly: Pre-emergence herbicidal activity against ABUTH. Conditions: dosage 80 g/ha, scored visually after about 3 weeks vs untreated controls. The source says:
(§1) 1. Pre-emergence herbicidal action against harmful plants and crop plant compatibility Seeds of monocotyledonous and dicotyledonous weed plants and crop plants are placed in plastic or wood fiber pots and covered with soil. The compounds of the invention, formulated in the form of wettable powders (WP) or as emulsion concentrates (EC), are then applied onto the surface of the covering soil as aqueous suspension or emulsion with addition of 0.5% additive at a water application rate of 600 l/ha (converted). After the treatment, the pots are placed in a greenhouse and kept under good growth conditions for the trial plants. After about 3 weeks, the effect of the preparations is scored visually in comparison with untreated controls as percentages. For example, 100% activity=the plants have died, 0% activity=like control plants. [table]

Assay [2] has as its system Veronica persica. Briefly: Pre-emergence herbicidal activity against VERPE. Conditions: Veronica persica, 504 h, dosage 80 g/ha. The method, boiled down: (§2)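 Emulsion concentrates or wettable powders, diluted in water containing 0.5% additive, go onto covering soil at a spray volume of 600 l/ha. Percent herbicidal effect is judged by eye about 3 weeks later in the greenhouse, 0% meaning like control plants and 100% meaning dead.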

The subject of assay [3] is Viola tricolor. The assay is described as follows: Pre-emergence herbicidal activity against VIOTR. Conditions: Viola tricolor, 504 h, dosage 80 g/ha, scored visually after about 3 weeks vs untreated controls. The gist of the method: as §2
Assay [4] concerns Alopecurus myosuroides. The assay is described as follows: Post-emergence herbicidal activity against ALOMY. Conditions: Alopecurus myosuroides, 504 h, dosage 320 g/ha, rated visually after about 3 weeks. The method, boiled down:
(§3)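 Post-emergence greenhouse spray at one-leaf stage, 600 l/ha with 0.5% additive; percent activity rated by eye after about 3 weeks relative to untreated plants.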

Assay [5] deals with Veronica persica. The assay is described as follows: Post-emergence herbicidal activity against VERPE. The following applies: Veronica persica, 504 h, dosage 320 g/ha, rated visually after about 3 weeks. The gist of the method: as §3
The subject of assay [6] is Avena fatua. Briefly: Pre-emergence herbicidal activity against AVEFA. The following applies: Avena fatua, 504 h, dosage 80 g/ha, scored visually after about 3 weeks vs untreated controls, read-out: Pre-emergence herbicidal activity in % against AVEVA (AVEFA). The gist of the method: as §2
The test system of assay [7] is Pharbitis purpurea. Briefly: Pre-emergence herbicidal activity against PHBPU. The following applies: dosage 80 g/ha, scored visually after about 3 weeks vs untreated controls.
Excerpt: as §1

Assay [8] relates to Stellaria media. The assay is described as follows: Pre-emergence herbicidal activity against STEME. The following applies: Stellaria media, 504 h, dosage 80 g/ha, scored visually after about 3 weeks vs untreated controls. The method, boiled down:
as §2

Assay [9] deals with Echinochloa crus-galli. Briefly: Post-emergence herbicidal activity against ECHCG. Conditions: Echinochloa crus-galli, 504 h, dosage 320 g/ha, rated visually after about 3 weeks. The gist of the method: as §3
For assay [10], the system named is Stellaria media. The assay is described as follows: Post-emergence herbicidal activity against STEME. Conditions: Stellaria media, 504 h, dosage 320 g/ha, rated visually after about 3 weeks. The gist of the method:
as §3

The test system of assay [11] is Polygonum convolvulus. The assay is described as follows: Pre-emergence herbicidal activity against POLCO. The following applies: Fallopia convolvulus, 504 h, dosage 80 g/ha, scored visually after about 3 weeks vs untreated controls. The method, boiled down:
as §2

The test system of assay [12] is Viola tricolor. Briefly: Post-emergence herbicidal activity against VIOTR. The following applies: Viola tricolor, 504 h, dosage 320 g/ha, rated visually after about 3 weeks. The gist of the method:
as §3

In assay [13] the test system is Setaria viridis. The assay is described as follows: Post-emergence herbicidal activity against SETVI. Conditions: Setaria viridis, 504 h, dosage 320 g/ha, rated visually after about 3 weeks. The gist of the method:
as §3

Assay [14] deals with Setaria viridis. The assay is described as follows: Pre-emergence herbicidal activity against SETVI. The following applies: Setaria viridis, 504 h, dosage 80 g/ha, scored visually after about 3 weeks vs untreated controls. The method, boiled down:
as §2

For assay [15], the system named is Pharbitis purpurea. Briefly: Post-emergence herbicidal activity against PHBPU. Conditions: Ipomoea purpurea, 504 h, dosage 320 g/ha, rated visually after about 3 weeks. The method, boiled down:
as §3

Assay [16] relates to Avena fatua. Briefly: Post-emergence herbicidal activity against AVEFA. Conditions: Avena fatua, 504 h, dosage 320 g/ha, rated visually after about 3 weeks. The method, boiled down: as §3
The test system of assay [17] is Hordeum murinum. The assay is described as follows: Pre-emergence herbicidal activity against HORMU. The following applies: Hordeum murinum, 504 h, dosage 80 g/ha. The method, boiled down: as §2
Assay [18] has as its system Amaranthus retroflexus. The assay is described as follows: Pre-emergence herbicidal activity against AMARE. Conditions: Amaranthus retroflexus, 504 h, dosage 80 g/ha, scored visually after about 3 weeks vs untreated controls. The method, boiled down:
as §2

Assay [19] concerns Polygonum convolvulus. The assay is described as follows: Post-emergence herbicidal activity against POLCO. The following applies: Fallopia convolvulus, 504 h, dosage 320 g/ha, rated visually after about 3 weeks. The gist of the method:
as §3

The subject of assay [20] is Lolium rigidum. The assay is described as follows: Pre-emergence herbicidal activity against LOLRI. The following applies: Lolium rigidum, 504 h, dosage 80 g/ha, scored visually after about 3 weeks vs untreated controls. The method, boiled down: as §2
The test system of assay [21] is Lolium rigidum. The assay is described as follows: Post-emergence herbicidal activity against LOLRI. The following applies: Lolium rigidum, 504 h, dosage 320 g/ha, rated visually after about 3 weeks. The gist of the method: as §3
Assay [22] concerns Echinochloa crus-galli. Briefly: Pre-emergence herbicidal activity against ECHCG. Conditions: Echinochloa crus-galli, 504 h, dosage 80 g/ha, scored visually after about 3 weeks vs untreated controls. The gist of the method:
as §2

Assay [23] in a line: Pre-emergence herbicidal action against harmful plants (summary of the tables). Conditions: 504 h, application rate of 0.08 kg of active substance or less per hectare, read-out: herbicidal action, pre-emergence treatment (very good activity). The method, boiled down: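 Seeds of weeds and crops were covered with soil, then WP or EC formulations were sprayed onto the soil surface pre-emergence at 600 l/ha water with 0.5% additive. Plants were grown in a greenhouse for about 3 weeks, and damage was scored visually as a percentage versus untreated controls (100% = plants dead).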

Assay [24] deals with Abutilon theophrasti. The assay is described as follows: Post-emergence herbicidal activity against ABUTH. The following applies: Abutilon theophrasti, 504 h, dosage 320 g/ha, rated visually after about 3 weeks. The method, boiled down:
as §3

In assay [25] the test system is Alopecurus myosuroides. Briefly: Pre-emergence herbicidal activity against ALOMY. Conditions: Alopecurus myosuroides, 504 h, dosage 80 g/ha, scored visually after about 3 weeks vs untreated controls. The gist of the method:
as §2

The test system of assay [26] is Amaranthus retroflexus. Briefly: Post-emergence herbicidal activity against AMARE. Conditions: Amaranthus retroflexus, 504 h, dosage 320 g/ha, rated visually after about 3 weeks. The method, boiled down: as §3
In assay [27] the test system is Hordeum murinum. Briefly: Post-emergence herbicidal activity against HORMU. Conditions: Hordeum murinum, 504 h, dosage 320 g/ha, rated visually after about 3 weeks. The gist of the method: as §3

As for `C=C[C@]1(C(=O)N[C@@H]2CO[C@H](C(=O)NOC)C2)CC(c2cc(F)cc(F)c2)=NO1` (mixture of isomers) [Example I-11, (5S)-3-(3,5-difluorophenyl)-N-[cis-5-(methoxycarbamoyl)tetrahydrofuran-3-yl]-5-vinyl-4H-isoxazole-5-carboxamide], the “Pre-emergence herbicidal activity in % against ABUTH” value in the assay with Abutilon theophrasti [1] is listed as 100%. Further, the pest or weed control at 80 g/ha with Veronica persica [2] stood at 90%; in the assay with Viola tricolor [3], 100%; in the assay on Avena fatua [6], 100%; with Stellaria media [8] it was 100%; in the assay on Polygonum convolvulus [11], 100%; in the assay with Setaria viridis [14], 100%. Also, the pest or weed control at 80 g/ha is 90% in the assay on Hordeum murinum [17]; 100% in the assay with Amaranthus retroflexus [18]; 100% in the assay on Lolium rigidum [20]; 100% with Echinochloa crus-galli [22]; 80 to 100% in assay [23]; 100% in the assay on Alopecurus myosuroides [25]. Besides, the pest or weed control at 320 g/ha was 90% in the assay with Alopecurus myosuroides [4]; 80% in the assay with Veronica persica [5]; 90% with Echinochloa crus-galli [9]; 90% with Stellaria media [10]; 80% with Viola tricolor [12]; 90% with Setaria viridis [13]. Further, the pest or weed control at 320 g/ha was 80% in the assay on Pharbitis purpurea [15]; 90% in the assay on Avena fatua [16]; 80% with Polygonum convolvulus [19]; 90% in the assay with Lolium rigidum [21]; 80% in the assay with Abutilon theophrasti [24]. Besides, the “Pre-emergence herbicidal activity in % against PHBPU” value in the assay with Pharbitis purpurea [7] came out at 90%.
Regarding `C=C[C@]1(C(=O)N[C@@H]2CO[C@H](C(=O)NOC(C)C)C2)CC(c2cc(F)cc(F)c2)=NO1` (mixture of isomers) [Example I-13, (5S)-3-(3,5-difluorophenyl)-N-[cis-5-(isopropoxycarbamoyl)tetrahydrofuran-3-yl]-5-vinyl-4H-isoxazole-5-carboxamide], the pest or weed control at 80 g/ha worked out at 90% in the assay with Veronica persica [2]; 100% in the assay on Viola tricolor [3]; 100% in the assay with Avena fatua [6]; 100% in the assay with Stellaria media [8]; 100% with Polygonum convolvulus [11]; 100% with Setaria viridis [14]. The pest or weed control at 80 g/ha with Hordeum murinum [17] was 100%; in the assay on Amaranthus retroflexus [18] it was 100%; with Lolium rigidum [20], 100%; with Echinochloa crus-galli [22], 100%; in [23], 80 to 100%; in the assay on Alopecurus myosuroides [25] it was 100%. Further, the pest or weed control at 320 g/ha came to 80% with Amaranthus retroflexus [26]; 90% in the assay with Alopecurus myosuroides [4]; 80% in the assay on Veronica persica [5]; 90% with Echinochloa crus-galli [9]; 90% in the assay on Stellaria media [10]; 80% in the assay on Viola tricolor [12]. The pest or weed control at 320 g/ha with Hordeum murinum [27] worked out at 90%; in the assay on Setaria viridis [13], 90%; with Pharbitis purpurea [15], 80%; in the assay with Avena fatua [16], 90%; in the assay with Polygonum convolvulus [19] it was 80%; with Lolium rigidum [21], 90%. For the same molecule, the pest or weed control at 320 g/ha in the assay on Abutilon theophrasti [24] came out at 80%. Moreover, the “Pre-emergence herbicidal activity in % against PHBPU” value with Pharbitis purpurea [7] was determined as 90%.
For the molecule `C=C[C@]1(C(=O)N[C@@H]2CO[C@H](C(=O)NC3CC3)C2)CC(c2cc(F)cc(F)c2)=NO1` (mixture of isomers) [Example I-18, (5S)—N-[cis-5-(cyclopropylcarbamoyl)tetrahydrofuran-3-yl]-3-(3,5-difluorophenyl)-5-vinyl-4H-isoxazole-5-carboxamide], the pest or weed control at 80 g/ha is 90% in the assay with Veronica persica [2]; 100% in the assay with Viola tricolor [3]; 90% in the assay on Avena fatua [6]; 100% in the assay with Stellaria media [8]; 100% in the assay on Polygonum convolvulus [11]; 100% in the assay on Setaria viridis [14]. For the same molecule, the pest or weed control at 80 g/ha was 100% with Hordeum murinum [17]; 100% in the assay on Amaranthus retroflexus [18]; 100% in the assay on Lolium rigidum [20]; 90% in the assay with Echinochloa crus-galli [22]; 80 to 100% in assay [23]; 100% in the assay with Alopecurus myosuroides [25]. Also, the pest or weed control at 320 g/ha with Amaranthus retroflexus [26] is 90%; with Alopecurus myosuroides [4] it was 90%; in the assay with Veronica persica [5] it was 80%; in the assay on Echinochloa crus-galli [9], 90%; in the assay on Stellaria media [10], 90%; with Viola tricolor [12] it was 80%. Also, the pest or weed control at 320 g/ha with Hordeum murinum [27], in the assay with Setaria viridis [13], in the assay with Pharbitis purpurea [15], in the assay with Avena fatua [16], in the assay on Polygonum convolvulus [19] and in the assay with Lolium rigidum [21] was 90% in each case. In the assay on Abutilon theophrasti [24], this molecule came in with a pest or weed control at 320 g/ha of 90%. Moreover, the “Pre-emergence herbicidal activity in % against PHBPU” value with Pharbitis purpurea [7] turned out to be 90%.
As for `CNC(=O)C1COCC1NC(=O)C1(C)CC(c2cc(F)cc(F)c2)=NO1` (stereo not drawn) [Example I-07, 3-(3,5-difluorophenyl)-5-methyl-N-[4-(methylcarbamoyl)tetrahydrofuran-3-yl]-4H-isoxazole-5-carboxamide], in the assay with Abutilon theophrasti [1], the “Pre-emergence herbicidal activity in % against ABUTH” value was 100%. Also, the pest or weed control at 320 g/ha with Pharbitis purpurea [15] and in the assay with Polygonum convolvulus [19] was 80% throughout. For the same molecule, the pest or weed control at 80 g/ha in the assay with Echinochloa crus-galli [22] is 100%.
